# Source: patent US20100068299A1 (priority 2003, published 2010)
# Experiment: Reversal of formed copper phosphite precipitate by added agent (Example 1)
# Assay type: physicochemical
# Details: agent added at final concentration of 10 mM; 0.6 g/l Cu(OH)2, 14.4 g/l KH2PO3, 1 g/l K2CO3, pH 5.5
compound,measurement,value
O=C([O-])CN(CCN(CC(=O)[O-])CC(=O)O)CC(=O)O.[Na+].[Na+] [disodium EDTA],effect on formed copper phosphite precipitate,immediately disappeared
